# Reference: PubChem BioAssay (NCI)
#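 How tested: cells in 96-well plates exposed to compound for 48 hours at five concentrations. At the GI50, growth is halved. TGI denotes the concentration required for complete inhibition of growth.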
# How the values were obtained:
# Test in all cases: NCI tumour cell line growth inhibition, 48 h
# HT29 colon = tested on: HT29 colon
# CCRF-CEM leukemia = tested on: CCRF-CEM leukemia
# RPMI-8226 leukemia = tested on: RPMI-8226 leukemia
# SNB-19 CNS = tested on: SNB-19 CNS
# OVCAR-3 ovarian = tested on: OVCAR-3 ovarian
# COLO 205 colon = tested on: COLO 205 colon
# LOX IMVI melanoma = tested on: LOX IMVI melanoma
# KM12 colon = tested on: KM12 colon
# OVCAR-4 ovarian = tested on: OVCAR-4 ovarian
# NCI-H23 lung = tested on: NCI-H23 lung
Compound,GI50 (HT29 colon) [µM],TGI (HT29 colon) [µM],GI50 (CCRF-CEM leukemia) [µM],TGI (CCRF-CEM leukemia) [µM],GI50 (RPMI-8226 leukemia) [µM],TGI (RPMI-8226 leukemia) [µM],GI50 (SNB-19 CNS) [µM],TGI (SNB-19 CNS) [µM],GI50 (OVCAR-3 ovarian) [µM],TGI (OVCAR-3 ovarian) [µM],GI50 (COLO 205 colon) [µM],TGI (COLO 205 colon) [µM],GI50 (LOX IMVI melanoma) [µM],TGI (LOX IMVI melanoma) [µM],GI50 (KM12 colon) [µM],TGI (KM12 colon) [µM],GI50 (OVCAR-4 ovarian) [µM],TGI (OVCAR-4 ovarian) [µM],GI50 (NCI-H23 lung) [µM],TGI (NCI-H23 lung) [µM]
CCN(Cc1c(F)cccc1OC)c1ccc(CO)c(Cl)c1,1.47,18.9,20.9,> 79.1,1.44,23.1,24.2,> 100,0.253,1.81,0.684,7.43,16.9,33.1,15.9,49.8,0.216,13,12.5,39.2
Nc1nc(Cl)nc2c1ncn2C1CC(O)C(CO)O1 (stereo not given),–,> 100,–,11.5,–,> 100,–,> 100,–,> 100,–,> 100,–,30.6,–,> 100,–,> 100,–,4.78
